Data set [1] has as its system PBMC. Description: Induction of IL-6 production in human PBMC at 10 ug/ml incubated for 24 hrs by flow cytometry analysis. Type of data set: functional, cell-based.
Data set [2] concerns PBMC. Put plainly: Induction of TNFalpha production in human PBMC at 10 ug/ml incubated for 24 hrs by flow cytometry analysis. Type of data set: functional, cell-based. (A flow cytometer gives signals particle by particle.)
Data set [3] addresses T1, Toll-like receptor 8 (Homo sapiens) (UniProt Q9NR97).
T1 sequence (whole entry): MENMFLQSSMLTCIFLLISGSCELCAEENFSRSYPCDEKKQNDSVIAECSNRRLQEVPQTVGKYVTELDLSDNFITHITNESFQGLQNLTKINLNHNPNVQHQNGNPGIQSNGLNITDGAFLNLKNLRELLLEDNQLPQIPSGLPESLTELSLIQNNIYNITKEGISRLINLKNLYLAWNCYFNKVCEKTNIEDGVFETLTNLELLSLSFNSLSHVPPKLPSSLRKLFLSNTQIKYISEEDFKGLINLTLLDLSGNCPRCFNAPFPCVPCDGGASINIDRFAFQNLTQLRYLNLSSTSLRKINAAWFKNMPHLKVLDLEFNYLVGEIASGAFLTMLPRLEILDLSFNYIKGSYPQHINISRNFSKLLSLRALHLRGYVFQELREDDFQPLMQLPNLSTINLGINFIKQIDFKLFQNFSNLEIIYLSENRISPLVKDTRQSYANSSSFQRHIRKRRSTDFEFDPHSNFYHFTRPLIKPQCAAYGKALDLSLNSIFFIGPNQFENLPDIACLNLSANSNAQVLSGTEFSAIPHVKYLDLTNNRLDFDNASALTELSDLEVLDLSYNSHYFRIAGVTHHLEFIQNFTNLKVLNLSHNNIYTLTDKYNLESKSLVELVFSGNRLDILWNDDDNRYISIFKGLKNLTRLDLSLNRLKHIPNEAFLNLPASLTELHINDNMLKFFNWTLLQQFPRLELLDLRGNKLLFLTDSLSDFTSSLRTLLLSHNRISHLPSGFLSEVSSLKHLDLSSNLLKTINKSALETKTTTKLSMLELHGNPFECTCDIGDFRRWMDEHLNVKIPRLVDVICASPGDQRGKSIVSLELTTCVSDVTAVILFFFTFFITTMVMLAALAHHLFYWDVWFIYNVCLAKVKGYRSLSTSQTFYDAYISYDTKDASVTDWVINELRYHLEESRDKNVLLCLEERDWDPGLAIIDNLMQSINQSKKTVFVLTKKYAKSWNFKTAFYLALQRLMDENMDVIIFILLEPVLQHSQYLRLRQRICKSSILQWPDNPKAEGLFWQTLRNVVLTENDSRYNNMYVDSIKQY
Description: Agonist activity at human TLR8 in HEK293 cells cotransfected with SEAP reporter gene assessed as activity of SEAP incubated for 24 hrs by quanti-blue staining based SEAP reporter gene assay. Type of data set: cell-based. On the technique in general: In a reporter assay the amount or activity of a reporter protein is the signal.

The target of data set [4] is T2, Toll-like receptor 7 (Homo sapiens, UniProt Q9NYK1).
T2 sequence (Q9NYK1 whole entry): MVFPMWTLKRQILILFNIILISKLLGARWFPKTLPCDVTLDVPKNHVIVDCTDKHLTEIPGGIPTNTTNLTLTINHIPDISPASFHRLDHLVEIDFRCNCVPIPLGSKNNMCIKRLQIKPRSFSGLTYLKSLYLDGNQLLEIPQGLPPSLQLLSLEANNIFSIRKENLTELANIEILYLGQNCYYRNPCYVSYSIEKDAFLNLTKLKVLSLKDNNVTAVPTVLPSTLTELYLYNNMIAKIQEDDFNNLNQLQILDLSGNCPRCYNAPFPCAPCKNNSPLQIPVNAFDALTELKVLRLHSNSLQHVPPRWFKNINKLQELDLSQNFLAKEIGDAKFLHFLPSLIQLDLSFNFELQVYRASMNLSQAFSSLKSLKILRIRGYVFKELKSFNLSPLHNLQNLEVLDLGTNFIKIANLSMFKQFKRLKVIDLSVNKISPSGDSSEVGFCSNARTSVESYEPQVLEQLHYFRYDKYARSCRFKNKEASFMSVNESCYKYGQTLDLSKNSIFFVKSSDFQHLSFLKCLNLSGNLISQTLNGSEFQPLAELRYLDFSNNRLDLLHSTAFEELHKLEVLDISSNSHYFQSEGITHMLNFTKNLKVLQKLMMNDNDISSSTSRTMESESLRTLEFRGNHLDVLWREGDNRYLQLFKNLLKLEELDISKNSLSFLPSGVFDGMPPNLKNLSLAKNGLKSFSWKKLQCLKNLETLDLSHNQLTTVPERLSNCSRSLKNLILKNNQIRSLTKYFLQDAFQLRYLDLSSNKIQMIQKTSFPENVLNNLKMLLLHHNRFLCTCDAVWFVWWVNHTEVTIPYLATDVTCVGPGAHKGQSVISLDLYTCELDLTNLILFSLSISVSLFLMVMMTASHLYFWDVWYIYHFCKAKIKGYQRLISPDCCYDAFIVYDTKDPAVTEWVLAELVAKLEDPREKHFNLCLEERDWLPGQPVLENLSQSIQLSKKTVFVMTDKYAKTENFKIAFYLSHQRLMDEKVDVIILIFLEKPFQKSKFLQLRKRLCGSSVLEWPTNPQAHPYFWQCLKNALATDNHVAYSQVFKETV
Put plainly: Agonist activity at human TLR7 in HEK293 cells cotransfected with SEAP reporter gene assessed as activity of SEAP incubated for 24 hrs by quanti-blue staining based SEAP reporter gene assay. The class given is cell-based. Particulars: read-out: EC50.

Data set [5] deals with PBMC. Description: Induction of IL-8 production in human PBMC at 10 ug/ml incubated for 24 hrs by flow cytometry analysis. The class given is functional, cell-based.
Data set [6] is described as follows: Cytotoxicity against human HEK293 cells transfected with human TLR7/8 assessed as reduction in cell viability incubated for 24 hrs by MTS assay. Type of data set: cell-based. Particulars: read-out: MNCC.
The test system of data set [7] is PBMC. Description: Induction of IL-12p70 production in human PBMC at 10 ug/ml incubated for 24 hrs by flow cytometry analysis. The class given is functional, cell-based.
Data set [8] concerns the target T3, Toll-like receptor 7 (Homo sapiens) (UniProt Q9NYK1).
T3 sequence (whole entry): T2 sequence (Q9NYK1 whole entry)
Put plainly: Antagonist activity at human TLR7 in HEK293 cells cotransfected with SEAP reporter gene assessed as activity of SEAP preincubated for 2 hrs followed by imiquimod addition further incubated for 24 hrs by quanti-blue staining based SEAP reporter gene assay. Type of data set: cell-based.

By EC50 is commonly meant the concentration at which the effect is half-maximal.

The source made the active and inactive calls. The calls are words filed in the database; no cut-off is given here.

Turning to `CC(C)CNc1cc(C(F)(F)F)nc2ccccc12`, the result in data set [1] and in data set [5] was Active. The outcome in data set [2], in data set [3], in data set [7] and in data set [8] was inactive. For the same compound, the EC50 in data set [4] is 6.3 µM. In addition, the MNTC at 24 h in data set [6] is 62.5 µM.
In the case of `FC(F)(F)c1nc(NC2CC2)c2ccccc2n1`, the result in data set [1] and in data set [5] was Active. Also, the result in data set [2], in data set [3], in data set [7] and in data set [8] was inactive. Further, the EC50 in data set [4] was 16.8 µM. In addition, in data set [6], the MNTC at 24 h was 125 µM.
Regarding `FC(F)(F)c1nc(NC2CCCCC2)c2ccccc2n1`, the result in data set [1] and in data set [5] was Active. Moreover, the result in data set [2], in data set [3], in data set [7] and in data set [8] was inactive. Besides, the EC50 in data set [4] came out at 8.3 µM. Also, the MNTC at 24 h in data set [6] was found to be 31.3 µM.
In the case of `CC(C)Cn1cnc2c(=O)oc3ccc(O)cc3c21`, the outcome in data set [1], in data set [2], in data set [3], in data set [5], in data set [7] and in data set [8] was inactive. In addition, the EC50 in data set [4] stood at 1.8 µM. Also, in data set [6], the MNTC at 24 h turned out to be 62.5 µM.
